The text below walks through data of US20100158857A1, “Compositions and methods for the inhibition of endothelial nitric oxide synthase activity” (University Of utah Research Foundation, priority 2006, published 2010).

Series [1] deals with C57BL/6 mice. Put plainly: VLS evaluation: [125I]-labeled albumin accumulation in peritoneal fluid of IL-2 treated mice. The format is in vivo. Conditions: for Effect on IL-2 induced radio-albumin accumulation in peritoneal fluid / VLS: given with IL-2, M40403: iNOS WT or iNOS−/− mice, 1400 W: IL-2 treated mice; for [125I] labeled albumin retention in peritoneal fluid: MLA 18.5 mg/mouse/day s.c. during IL-2 treatment. The protocol:
Peritoneal fluid was collected using blotting paper. Liver, spleen, intestines, kidneys, lungs and heart were also excised and analyzed for [^125l]-albumin accumulation. Data was expressed as percentage of radiolabeled albumin recovered from each tissue with the total amount recovered from each animal. This form of analysis minimizes differences induced by variability in injection technique.
(§1) 1400 W was dissolved at a concentration of 1M in sterile PBS and administered via continuous subcutaneous infusion by Alzet mini osmotic pumps (Model 2001, Alzet Corporation, Cupertino, Calif.). Each pump contained 225 μL of solution that released a constant volume of 28 μL/day, resulting in a calculated delivery of 7 mg 1400 W/mouse/day.
(§2) MLA was dissolved in sterile ultra-filtered water at a concentration of 3.38M and loaded into pre-equilibrated osmotic pumps containing 225 μL of solution that released a constant volume of 28 μL/day, resulting in a calculated delivery of 18.5 mg MLA/mouse/day.

The subject of series [2] is C57BL/6 mice. In words: Systolic blood pressure by tail cuff method in IL-2 treated mice. Type of series: in vivo. The protocol: Systolic blood pressure was measured via tail cuff method (Stoelting, Wood Dell, Ill.) using PowerLab digital signal transducer (AD instruments, Mountain View, Calif.). […] The lower limit of blood pressure detectable using this instrumentation is about 40 mm of Hg. This value of blood pressure was assigned whenever no detectable value could be obtained.
as §1, §2

Series [3] concerns peritoneal exudate cells. In words: Inhibition of NO synthesis in IFNγ/LPS-stimulated peritoneal exudate cells (Griess reaction). The format is cell-based. Conditions: 48 hours; highest concentration MLA 1 mM, Polymethylarginine 400 uM. The protocol:
First, peritoneal exudate cells were elicited by thioglycolate. These cells were then harvested and cultured in 96 well microtiter wells at 1×10^6 overnight in DMEM media with 5% FCS. Media was then replaced with DMEM containing 50 Units/ml of IFNγ and 100 ng/ml bacterial lipopolysaccharide. Serial dilutions of either N^G-monomethy-L-larginine (MLA) or Polymethylarginine (poly-MLA 7-mer) were then added to experimental wells. The highest concentration of MLA was 1 mM and of Polymethylarginine was 400 uM.
The cultures were then incubated for 48 hours and culture supernatants were assayed for the NO metabolite nitrate using the Griess reaction after nitrate reduction.
In general terms: The Griess reaction detects nitrite, a stable product of nitric oxide.

Series [4] can be described thus: Retention of modified NOS inhibitors in the vasculature. As to conditions: due to their size.
Where [5] appears, read: iNOS−/− mice, given together with IL-2.

For `CC(=N)NCc1cccc(CN)c1` [1400 W], the “Effect on IL-2 induced radio-albumin accumulation in peritoneal fluid / VLS” value in series [1] is on record as “did not inhibit”. In series [2] (mice treated with IL-2 plus 1400 W, continuous s.c. infusion 7 mg/mouse/day), the Systolic blood pressure is 45±7 mm of Hg.
On to `[Cl-].[Cl-].[Mn+2].c1cc2nc(c1)CN[C@@H]1CCCC[C@H]1NCCN[C@@H]1CCCC[C@H]1NC2` [M40403], for which the “Effect on IL-2 induced radio-albumin accumulation in peritoneal fluid / VLS” value in series [1] is “did not reverse”. Besides, in series [2] (setting [5]), the Systolic blood pressure was 85±5 mm of Hg.
Regarding `CNC(=N)NCCC[C@H](N)C(=O)O` [MLA, N^G-monomethyl-L-arginine], the “[125I] labeled albumin retention in peritoneal fluid” value in series [1] (iNOS WT mice) is reported as 0.562±0.24%; in series [1] (iNOS−/− mice), 1.66±0.06%. In addition, in series [2] (setting [5]), the Systolic blood pressure is 80±10 mm of Hg. Moreover, in series [3], the “Effect of serial dilutions on NO production” value is reported as “blocked NO production”.
`CNC(=N)NCCC[C@H](NC(=O)[C@H](CCCNC(=N)NC)NC(=O)[C@H](CCCNC(=N)NC)NC(=O)[C@H](CCCNC(=N)NC)NC(=O)[C@H](CCCNC(=N)NC)NC(=O)[C@H](CCCNC(=N)NC)NC(=O)[C@@H](N)CCCNC(=N)NC)C(=O)O` [poly-MLA, (N^G-mono-methyl-L-arginine)^7]: in series [4], the “Retention in the vasculature” value is “retained in the vasculature”.
